# pEC50, pIC50: −log10 of the molar value.
# Assays:
# [1] = system: Caco2-HIF1α-HiBiT-clone-1 cells; assay: Caco-2 HIF1α-HiBiT assay; type: cell-based; details: Homo sapiens, Caco-2; Caco2-HIF1α-HiBiT-clone-1 cells, 6 h incubation, luminescence; read-out: Caco2-HIF1α-HiBit assay - EC50
# PHD2 = PHD2 (Homo sapiens, UniProt Q9GZT9); assay: PHD2 enzymatic assay (AlphaScreen); type: biochemical; details: PHD2 enzyme, AlphaScreen, IC50 from % inhibition; read-out: PHD2
# Sequence of PHD2 (Q9GZT9 whole entry): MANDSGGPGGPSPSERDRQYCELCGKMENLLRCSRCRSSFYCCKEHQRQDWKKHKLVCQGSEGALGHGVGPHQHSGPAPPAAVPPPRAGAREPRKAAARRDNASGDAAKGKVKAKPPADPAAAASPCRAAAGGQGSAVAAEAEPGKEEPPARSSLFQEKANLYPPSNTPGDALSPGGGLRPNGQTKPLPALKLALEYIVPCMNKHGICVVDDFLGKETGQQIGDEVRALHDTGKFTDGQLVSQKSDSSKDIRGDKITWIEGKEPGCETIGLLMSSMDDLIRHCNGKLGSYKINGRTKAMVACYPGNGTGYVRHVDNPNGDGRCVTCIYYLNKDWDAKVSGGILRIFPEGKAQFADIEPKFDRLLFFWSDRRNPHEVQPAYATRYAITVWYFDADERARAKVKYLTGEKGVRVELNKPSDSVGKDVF
SMILES,pEC50 [1],pIC50 (PHD2)
N#Cc1ccc(CNC(=O)c2ncc3nc(N4CCN(C5CC5)CC4)ccc3c2O)c(Cl)c1 [Example 4],4.00 to 5.00,7.70 to 8.30
"N#Cc1ccc(CNC(=O)c2ncc3nc(N4CCNCC4)ccc3c2O)c(Cl)c1 [Example 5, N-(2-chloro-4-cyanobenzyl)-5-hydroxy-2-(piperazin-1-yl)-1,7-naphthyridine-6-carboxamide]",5.00 to 5.12,7.70 to 8.30
"N#Cc1ccc(CNC(=O)c2ncc3nc(N4CC[C@@H](O)C4)ccc3c2O)c(Cl)c1 [Example 6, (R)—N-(2-chloro-4-cyanobenzyl)-5-hydroxy-2-(3-hydroxypyrrolidin-1-yl)-1,7-naphthyridine-6-carboxamide]",5.30 to 5.60,7.70 to 8.30
"N#Cc1ccc(COC(=O)c2ncc3nc(N4CC[C@@H](O)C4)ccc3c2O)cn1 [Example 15, (6-cyanopyridin-3-yl)methyl (R)-5-hydroxy-2-(3-hydroxypyrrolidin-1-yl)-1,7-naphthyridine-6-carboxylate]",4.00 to 5.00,4.00 to 6.00
CP1(=O)CCN(c2ccc3c(O)c(C(=O)NCc4ccc(C#N)cc4Cl)ncc3n2)CC1 [Example 16],4.00 to 5.00,> 8.30
C[C@H](NC(=O)c1ncc2nc(N3CCOCC3)ccc2c1O)c1ccc(C#N)cc1 [Example 17],4.00 to 5.00,4.00 to 6.00
C[C@@H](NC(=O)c1ncc2nc(N3CCOCC3)ccc2c1O)c1ccc(C#N)cc1 [Example 18],5.12 to 5.30,7.70 to 8.30
CN1CCN(c2ccc3c(O)c(C(=O)NCc4ccc(C#N)cc4Cl)ncc3n2)CC1=O [Example 19],4.00 to 5.00,7.70 to 8.30
Cc1cc(C#N)ncc1CNC(=O)c1ncc2nc(N3CCOCC3)ccc2c1O [Example 20],5.30 to 5.60,> 8.30
CC(NC(=O)c1ncc2nc(N3CCOCC3)ccc2c1O)c1ccc(C#N)nc1 (stereo not shown) [Example 21],4.00 to 5.00,7.00 to 7.70
N#Cc1ncc(CNC(=O)c2ncc3nc(N4CCOCC4)ccc3c2O)cn1 [Example 23],5.12 to 5.30,> 8.30
CO[C@@H]1CCN(c2ccc3c(O)c(C(=O)NCc4ccc(C#N)nc4)ncc3n2)C1 [Example 27],> 5.60,> 8.30
"CC(C)(C)OC(=O)N1CCN(c2ccc3c(O)c(C(=O)NCc4ccc(C#N)nc4)ncc3n2)CC1 [Example 29, tert-butyl 4-(6-(((6-cyanopyridin-3-yl)methyl)carbamoyl)-5-hydroxy-1,7-naphthyridin-2-yl)piperazine-1-carboxylate]",> 5.60,> 8.30
N#Cc1ccc(CNC(=O)c2ncc3nc(N4CCOCC4)ncc3c2O)cn1 [Example 31],4.00 to 5.00,–
COc1cc(C#N)ncc1CNC(=O)c1ncc2nc(N3CCOCC3)ccc2c1O [Example 32],4.00 to 5.00,> 8.30
N#Cc1cnc(CNC(=O)c2ncc3nc(N4CCOCC4)ccc3c2O)cn1 [Example 33],5.12 to 5.30,–
"N#Cc1ccc(CNC(=O)c2ncc3nc(N4CC[C@H](C(=O)N5CCNCC5)C4)ccc3c2O)cn1 [Example 41, (S)—N-((6-cyanopyridin-3-yl)methyl)-5-hydroxy-2-(3-(piperazine-1-carbonyl)pyrrolidin-1-yl)-1,7-naphthyridine-6-carboxamide]",4.00 to 5.00,> 8.30

SMILES,pEC50 [1],pIC50 (PHD2)
N#Cc1ccc(CNC(=O)c2ncc3nc(N4CC[C@@H](CO)C4)ccc3c2O)cn1 [Example 42],5.30 to 5.60,> 8.30
"CN1CCN(c2ccc3c(O)c(C(=O)NCc4ccc(C#N)nc4)ncc3n2)C[C@@H]1CO [Example 45, (R)—N-((6-cyanopyridin-3-yl)methyl)-5-hydroxy-2-(3-(hydroxymethyl)-4-methylpiperazin-1-yl)-1,7-naphthyridine-6-carboxamide]",4.00 to 5.00,> 8.30
"CC(=O)N1CCN(c2ccc3c(O)c(C(=O)NCc4ccc(C#N)nc4)ncc3n2)C[C@@H]1CO [Example 46, (R)-2-(4-acetyl-3-(hydroxymethyl)piperazin-1-yl)-N-((6-cyanopyridin-3-yl)methyl)-5-hydroxy-1,7-naphthyridine-6-carboxamide]",4.00 to 5.00,> 8.30
CC(C)(C)OC(=O)N1CCN(c2ccc3c(O)c(C(=O)NCc4ccc(C#N)nc4)ncc3n2)C[C@@H]1CO [Example 47],> 5.60,> 8.30
"COC(=O)[C@H]1CN(c2ccc3c(O)c(C(=O)NCc4ccc(C#N)nc4)ncc3n2)CCN1 [Example 50, methyl (R)-4-(6-(((6-cyanopyridin-3-yl)methyl)carbamoyl)-5-hydroxy-1,7-naphthyridin-2-yl)piperazine-2-carboxylate]",4.00 to 5.00,> 8.30
"N#Cc1ccc(CNC(=O)c2ncc3nc(N4CCN[C@@H](C(=O)O)C4)ccc3c2O)cn1 [Example 51, (R)-4-(6-(((6-cyanopyridin-3-yl)methyl)carbamoyl)-5-hydroxy-1,7-naphthyridin-2-yl)piperazine-2-carboxylic acid]",4.00 to 5.00,> 8.30
"CN1CCN(c2ccc3c(O)c(C(=O)NCc4ccc(C#N)cc4Cl)ncc3n2)C[C@@H]1CO [Example 59, (R)—N-(2-chloro-4-cyanobenzyl)-5-hydroxy-2-(3-(hydroxymethyl)-4-methylpiperazin-1-yl)-1,7-naphthyridine-6-carboxamide]",5.30 to 5.60,> 8.30
"N#Cc1ccc(CNC(=O)c2ncc3nc(N4CCN[C@@H](CO)C4)ccc3c2O)c(Cl)c1 [Example 60, (R)—N-(2-chloro-4-cyanobenzyl)-5-hydroxy-2-(3-(hydroxymethyl)piperazin-1-yl)-1,7-naphthyridine-6-carboxamide]",4.00 to 5.00,7.70 to 8.30
"CC(=O)N1CCN(c2ccc3c(O)c(C(=O)NCc4ccc(C#N)cc4Cl)ncc3n2)C[C@@H]1CO [Example 63, (R)-2-(4-acetyl-3-(hydroxymethyl)piperazin-1-yl)-N-(2-chloro-4-cyanobenzyl)-5-hydroxy-1,7-naphthyridine-6-carboxamide]",5.00 to 5.12,7.70 to 8.30
"N#Cc1ccc(CNC(=O)c2ncc3nc(N4CCNCC4=O)ccc3c2O)cn1 [Example 102, N-((6-cyanopyridin-3-yl)methyl)-5-hydroxy-2-(2-oxopiperazin-1-yl)-1,7-naphthyridine-6-carboxamide]",–,6.00 to 7.00
"CC(C)(C)OC(=O)N1CCN(c2ccc3c(O)c(C(=O)NCc4cnc(C#N)cn4)ncc3n2)CC1 [Example 134, tert-butyl 4-(6-(((5-cyanopyrazin-2-yl)methyl)carbamoyl)-5-hydroxy-1,7-naphthyridin-2-yl)piperazine-1-carboxylate]",4.00 to 5.00,–
Cc1cc(C#N)ncc1CNC(=O)c1ncc2nc(N3CCN(C(=O)OC(C)(C)C)CC3)ccc2c1O [Example 135],> 5.60,–
CC[C@H]1CN(C(=O)OC(C)(C)C)CCN1c1ccc2c(O)c(C(=O)NCc3ccc(C#N)nc3)ncc2n1 [Example 151],5.30 to 5.60,–
CCOC(=O)CC1CN(c2ccc3c(O)c(C(=O)NCc4ccc(C#N)nc4)ncc3n2)C1 [Example 153],5.30 to 5.60,–
CC(C)OC(=O)CC1CN(c2ccc3c(O)c(C(=O)NCc4ccc(C#N)nc4)ncc3n2)C1 [Example 154],> 5.60,–
CC1(C)CCN(c2ccc3c(O)c(C(=O)NCc4ccc(C#N)nc4)ncc3n2)CC1 [Example 155],5.00 to 5.12,–
"COc1c(C(=O)NCc2ccc(C#N)nc2)ncc2nc(N3CCOCC3)ccc12 [Example 163, N-((6-cyanopyridin-3-yl)methyl)-5-methoxy-2-morpholino-1,7-naphthyridine-6-carboxamide]",–,6.00 to 7.00
